Here are results for seven compounds from patent US20220193384A1, “CUTANEOUS DEVICE FOR STORING AND RELEASING MOLECULES, AND CORRESPONDING METHOD” (priority 2019, published 2022).

For data set [1] the following is noted: C57BL/6, mouse, 100 μg mL^−1, pH 7.4.
For data set [2] the following is noted: drug passed through and remained inside the excised skin; cited from earlier work.
The test system of data set [3] is Gram-negative E. coli K12. Briefly: Minimum inhibitory concentration (MIC). It counts as cell-based. The conditions noted are these: Escherichia coli.
Data set [4] is described as follows: Skin permeation, static Franz diffusion cell, passive and electrothermally activated patch. The settings on record: stock solution 100 μg mL^−1 for loading, mouse skin.
The next data set deals with blood glucose level. Briefly: In vivo blood glucose level after insulin injection or insulin-loaded electrothermal patch. The settings on record: IP or subcutaneous injection of insulin (0.032 UI, 1.12 μg), C57BL/6 mice.
Setting [5] is: electrothermal activation 1 V, 10 min.

Converted amounts (≈) assume the structure as drawn. Read-outs that look alike come from different tables or passages of the source.

As usually defined, the MIC is the lowest concentration that inhibits growth of the organism. A high value points to a need for much substance.

With `Cn1c(=O)c2c(ncn2C)n(C)c1=O` [caffeine], in data set [1], the “Active, amount of drug permeated” value came to 58 µg/mL; the Flux active is 15.09 μg cm^−2 h^−1; the Flux passive is given as 7.18 μg cm^−2 h^−1; the “Passive, amount of drug permeated” value came to 28 µg/mL.

Consider `CN(C)C(=N)N=C(N)N` [metformin], for which, in data set [1], the Flux active is 4.68 μg cm^−2 h^−1.

Regarding `O=c1[nH]cc(F)c(=O)[nH]1` [5-fluorouracil], in data set [1], the “Active, amount of drug permeated” value was 23.1 µg/mL; the Flux passive is 0 μg cm^−2 h^−1; the “Passive, amount of drug permeated” value was 0 µg/mL. Moreover, the “Flux of 5-fluorouracil reported by Xie et al.” value in data set [2] was 1.64 μg cm^−2 h^−1.

In the case of `CO/N=C(\C(=O)N[C@@H]1C(=O)N2C(C(=O)[O-])=C(C[N+]3(C)CCCC3)CS[C@H]12)c1csc(N)n1` [cefepime], the MIC in data set [3] was 10 ± 0.5 µg/mL (≈ 20.8 µM). For the same compound, in data set [4] (setting [5]), the “Active, amount of drug permeated” value worked out at 18.3 µg/mL and the Flux active is reported as 4.67 μg cm^−2 h^−1. In data set [4] (passive, no activation), the Flux passive was determined as 0 μg cm^−2 h^−1 and the “Passive, amount of drug permeated” value worked out at 0 µg/mL.

As for insulin, the “Time to therapeutic effect (change in blood glucose level)” value in the data set with blood glucose level is on record as “about 15 min”.

Take `COc1cccc2c1C(=O)c1c(O)c3c(c(O)c1C2=O)C[C@@](O)(C(=O)CO)C[C@@H]3O[C@H]1C[C@H](N)[C@H](O)[C@H](C)O1` [doxorubicin]: in data set [1], the “Active, amount of drug permeated” value came to 62 µg/mL; the Flux active was found to be 6.61 μg cm^−2 h^−1; the Flux passive was 0 μg cm^−2 h^−1; the “Passive, amount of drug permeated” value turned out to be 0 µg/mL.

As to `CC1(C)S[C@@H]2[C@H](NC(=O)[C@H](N)c3ccccc3)C(=O)N2[C@H]1C(=O)O` [ampicillin], in data set [3], the MIC stood at 10 ± 0.5 µg/mL (≈ 28.6 µM).
